The IC50 is the concentration at which inhibition is half-maximal. What is called logD is lipophilicity at a set pH, counting ionised and neutral species. Read a low logD as a more hydrophilic compound. A word on the half-life: it is the time in which the quantity being followed falls by half. A low value points to rapid decline. As a reminder, the Kb is the equilibrium dissociation constant of an antagonist, usually derived from a functional assay. For orientation: Tmax means the time from dosing to the highest level. What is called Vd is the apparent volume that relates the amount in the body to the concentration in plasma or blood. A low value points to confinement near the circulation. As usually defined, the clearance is a measure of how efficiently the substance is removed, as volume per time. A word on the efflux ratio: it is a quotient of directional permeabilities that is used to spot active efflux. By bioavailability is commonly meant the share of a dose that reaches the circulation, judged against a reference dose that is usually intravenous. Read a high bioavailability as good availability.

Structures are written as SMILES. Active and inactive are the calls of the source. The rule behind the calls is not given here.

Series [1] has as its target T1, Orexin/Hypocretin receptor type 1 (Homo sapiens, UniProt O43613).
T1 sequence (O43613 whole entry): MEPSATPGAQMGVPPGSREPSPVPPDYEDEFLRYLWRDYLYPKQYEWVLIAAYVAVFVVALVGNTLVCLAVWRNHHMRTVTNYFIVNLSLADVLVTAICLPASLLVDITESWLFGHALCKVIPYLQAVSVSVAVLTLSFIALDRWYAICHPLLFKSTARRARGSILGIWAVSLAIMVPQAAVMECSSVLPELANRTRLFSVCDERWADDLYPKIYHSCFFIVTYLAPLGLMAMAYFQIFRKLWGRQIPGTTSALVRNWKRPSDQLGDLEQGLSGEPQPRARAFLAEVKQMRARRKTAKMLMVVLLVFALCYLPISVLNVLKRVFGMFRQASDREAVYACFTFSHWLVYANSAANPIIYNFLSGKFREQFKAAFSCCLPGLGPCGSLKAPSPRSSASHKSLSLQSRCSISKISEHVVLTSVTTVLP
Kind of series: Antagonist activity at human recombinant OX1R expressed in CHOK1 cells assessed as inhibition of orexin A-induced intracellular Ca2+ release preincubated for 30 mins followed by orexin-A stimulation by Fluo4-AM dye based fluorescence analysis. Type of series: functional, cell-based, CHO-K1.

The subject of series [2] is Rattus norvegicus. The experiment in a line: Sleep-promoting activity in ip dosed Wistar rat by polysomnography. The following applies: read-out: MED. The format is functional.
The nature of series [3]: Lipophilicity, log D of the compound at pH 7.4 by HPLC analysis. The following applies: buffer. The format is physicochemical.
Series [4] can be described thus: Half-life in Sprague-Dawley rat at 2 mg/kg, iv. Type of series: ADME, organism-based. To be noted: in vivo.
The target in a further series is T2, Orexin receptor type 2 (Homo sapiens, UniProt O43614).
T2 sequence (O43614 whole entry): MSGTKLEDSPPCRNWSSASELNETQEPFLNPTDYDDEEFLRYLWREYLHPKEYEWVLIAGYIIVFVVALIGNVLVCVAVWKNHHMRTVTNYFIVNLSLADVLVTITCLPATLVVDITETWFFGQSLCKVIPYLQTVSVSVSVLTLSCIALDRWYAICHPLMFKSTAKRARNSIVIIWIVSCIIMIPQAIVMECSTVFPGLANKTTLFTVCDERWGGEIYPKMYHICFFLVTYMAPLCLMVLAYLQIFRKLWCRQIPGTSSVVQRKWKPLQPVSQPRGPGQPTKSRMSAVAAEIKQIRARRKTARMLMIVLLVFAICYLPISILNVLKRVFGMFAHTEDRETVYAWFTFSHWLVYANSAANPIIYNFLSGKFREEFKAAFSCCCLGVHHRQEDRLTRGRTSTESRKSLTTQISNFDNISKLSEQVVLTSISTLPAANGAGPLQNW
The experiment in a line: Antagonist activity at human recombinant OX2R expressed in CHOK1 cells assessed as inhibition of orexin A-induced intracellular Ca2+ release preincubated for 30 mins followed by orexin-A stimulation by Fluo-4AM dye based fluorescence analysis. Type of series: functional, cell-based, CHO-K1.

The nature of series [5]: Half-life in dog at 0.5 mg/kg, iv. Type of series: ADME, organism-based, Canis lupus familiaris. The following applies: in vivo.
The nature of series [6]: Half-life in human at 10 to 80 mg, po administered as single dose. Type of series: ADME, organism-based. To be noted: in vivo.
Series [7] in a line: Half-life in human plasma at 40 mg,po administered once daily. Type of series: ADME, cell-free.
The nature of series [8]: Half-life in human. The format is ADME.
Series [9] is described as follows: Drug uptake in cerebrospinal fluid in Sprague-Dawley rat at 3 mg/kg, po measured after 1 hr. Type of series: ADME, organism-based. The following applies: read-out: Drug uptake.
For series [10], the target named is T3, Orexin receptor type 2 (Rattus norvegicus) (UniProt P56719).
T3 sequence (whole entry): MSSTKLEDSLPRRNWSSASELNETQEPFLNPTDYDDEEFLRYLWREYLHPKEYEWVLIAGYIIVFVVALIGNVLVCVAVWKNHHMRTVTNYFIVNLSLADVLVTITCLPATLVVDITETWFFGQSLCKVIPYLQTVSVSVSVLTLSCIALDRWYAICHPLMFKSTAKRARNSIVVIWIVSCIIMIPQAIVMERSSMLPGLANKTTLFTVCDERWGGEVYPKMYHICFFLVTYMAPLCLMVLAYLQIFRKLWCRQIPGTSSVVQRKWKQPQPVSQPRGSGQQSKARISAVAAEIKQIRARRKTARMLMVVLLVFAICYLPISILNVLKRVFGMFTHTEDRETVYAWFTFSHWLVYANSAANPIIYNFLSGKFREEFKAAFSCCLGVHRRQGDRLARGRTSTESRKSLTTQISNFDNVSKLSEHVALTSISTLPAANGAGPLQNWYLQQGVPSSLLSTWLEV
The experiment in a line: Antagonist activity at rat recombinant OX2R expressed in CHOK1 cells assessed as inhibition of orexin A-induced intracellular Ca2+ release preincubated for 30 mins followed by orexin-A stimulation by Fluo4-AM dye based fluorescence analysis. The format is functional, cell-based. The following applies: CHO-K1.

Series [11] can be described thus: Tmax in Sprague-Dawley rat at 3 mg/kg, po. The format is ADME, organism-based. To be noted: in vivo.
A short description of series [12]: Plasma protein binding in Sprague-Dawley rat at 2 ug/mL. To be noted: read-out: PPB (converted). The format is ADME, cell-free.
The nature of series [13]: Chemical stability of the compound in JP 1st fluid at pH 1.2 at 37 degC incubated for 24 hrs. The following applies: buffer, pH 1.2, 24 h. The format is physicochemical.
Series [14] in a line: Volume of distribution in dog at 0.5 mg/kg, iv. Type of series: ADME, organism-based, Canis lupus familiaris. The following applies: in vivo.
The target in series [15] is T4, Orexin/Hypocretin receptor type 1 (Rattus norvegicus) (UniProt P56718).
T4 sequence (whole entry): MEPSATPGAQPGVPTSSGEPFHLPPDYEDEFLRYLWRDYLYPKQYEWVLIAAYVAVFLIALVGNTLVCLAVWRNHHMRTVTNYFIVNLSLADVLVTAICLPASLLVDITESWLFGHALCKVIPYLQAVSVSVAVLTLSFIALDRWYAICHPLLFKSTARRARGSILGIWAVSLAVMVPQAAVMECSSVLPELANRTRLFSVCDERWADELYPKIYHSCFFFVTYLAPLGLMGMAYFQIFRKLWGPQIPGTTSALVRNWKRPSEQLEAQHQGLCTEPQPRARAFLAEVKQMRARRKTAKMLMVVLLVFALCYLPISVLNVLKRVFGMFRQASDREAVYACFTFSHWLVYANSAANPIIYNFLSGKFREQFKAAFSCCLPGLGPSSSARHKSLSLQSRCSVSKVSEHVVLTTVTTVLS
Kind of series: Antagonist activity at rat recombinant OX1R expressed in CHOK1 cells assessed as inhibition of orexin A-induced intracellular Ca2+ release preincubated for 30 mins followed by orexin-A stimulation by Fluo4-AM dye based fluorescence analysis. The format is functional, cell-based. The following applies: CHO-K1.

Series [16] can be described thus: Clearance in dog at 0.5 mg/kg, iv. The format is ADME, organism-based, Canis lupus familiaris. To be noted: in vivo.
Series [17] is described as follows: Clearance in Sprague-Dawley rat at 1 mg/kg or 2 mg/kg, iv. Type of series: ADME, organism-based. To be noted: in vivo.
In series [18] the test system is Rattus norvegicus. The experiment in a line: Sleep-promoting activity in Wistar rat assessed as fast sleep onset latency at 1 to10 mg/kg, po administered 10 mins prior to the onset of dark period measured every 20s for 2 hrs by polysomnography. Type of series: functional, organism-based.
Series [19] can be described thus: Tmax in dog at 3 mg/kg, po. The format is ADME, organism-based, Canis lupus familiaris. To be noted: in vivo.
Series [20] in a line: Drug metabolism in rat liver microsomes incubated for 15 mins. The format is ADME, Microsome. To be noted: read-out: Drug metabolism.
The nature of series [21]: Ratio of drug level in cerebrospinal fluid to plasma in Sprague-Dawley rat at 3 mg/kg, po. Type of series: ADME, organism-based. The following applies: csf.
A further series addresses P-gp (ABCB1) (Homo sapiens, UniProt P08183). The experiment in a line: Substrate activity at P-gp (unknown origin) assessed as efflux ratio. To be noted: not told. The format is ADME.
The subject of series [22] is Rattus norvegicus. Kind of series: Sleep-promoting activity in po dosed Wistar rat assessed as increase in total sleep administered 10 mins prior to the onset of dark period measured every 20s for 2 hrs by polysomnography. The format is functional, organism-based.
Series [23] is described as follows: Oral bioavailability in Sprague-Dawley rat at 3 mg/kg. Type of series: ADME, organism-based. The following applies: in vivo.
A short description of series [24]: Ratio of drug level in brain to plasma in Sprague-Dawley rat at 3 mg/kg, po. Type of series: ADME, organism-based.
Series [25] is described as follows: Plasma protein binding in dog at 2 ug/mL. The format is ADME, cell-free, Canis lupus familiaris. The following applies: read-out: PPB (converted).
Series [26] is described as follows: Half-life in Sprague-Dawley rat at 1 mg/kg or 2 mg/kg, iv. The format is ADME, organism-based. The following applies: in vivo.
The test system of series [27] is Rattus norvegicus. The experiment in a line: Sleep-promoting activity in po dosed Wistar rat administered 10 mins prior to the onset of dark period measured every 20s for 2 hrs by polysomnography. The format is functional. The following applies: read-out: MED.
Series [28] is described as follows: Drug metabolism in human liver microsomes incubated for 15 mins. The following applies: read-out: Drug metabolism. Type of series: ADME, Microsome. (In general: Liver microsomes are vesicles of endoplasmic reticulum, rich in cytochrome P450 enzymes.)
Series [29] in a line: Volume of distribution in Sprague-Dawley rat at 1 mg/kg or 2 mg/kg, iv. Type of series: ADME, organism-based. To be noted: in vivo.
Series [30] is described as follows: Oral bioavailability in dog at 3 mg/kg. Type of series: ADME, organism-based, Canis lupus familiaris. To be noted: in vivo.
The nature of series [31]: Drug metabolism in dog liver microsomes incubated for 15 mins. Type of series: ADME, Canis lupus familiaris, Microsome. The following applies: read-out: Drug metabolism.

Chain of P-gp (ABCB1) (P08183 whole entry): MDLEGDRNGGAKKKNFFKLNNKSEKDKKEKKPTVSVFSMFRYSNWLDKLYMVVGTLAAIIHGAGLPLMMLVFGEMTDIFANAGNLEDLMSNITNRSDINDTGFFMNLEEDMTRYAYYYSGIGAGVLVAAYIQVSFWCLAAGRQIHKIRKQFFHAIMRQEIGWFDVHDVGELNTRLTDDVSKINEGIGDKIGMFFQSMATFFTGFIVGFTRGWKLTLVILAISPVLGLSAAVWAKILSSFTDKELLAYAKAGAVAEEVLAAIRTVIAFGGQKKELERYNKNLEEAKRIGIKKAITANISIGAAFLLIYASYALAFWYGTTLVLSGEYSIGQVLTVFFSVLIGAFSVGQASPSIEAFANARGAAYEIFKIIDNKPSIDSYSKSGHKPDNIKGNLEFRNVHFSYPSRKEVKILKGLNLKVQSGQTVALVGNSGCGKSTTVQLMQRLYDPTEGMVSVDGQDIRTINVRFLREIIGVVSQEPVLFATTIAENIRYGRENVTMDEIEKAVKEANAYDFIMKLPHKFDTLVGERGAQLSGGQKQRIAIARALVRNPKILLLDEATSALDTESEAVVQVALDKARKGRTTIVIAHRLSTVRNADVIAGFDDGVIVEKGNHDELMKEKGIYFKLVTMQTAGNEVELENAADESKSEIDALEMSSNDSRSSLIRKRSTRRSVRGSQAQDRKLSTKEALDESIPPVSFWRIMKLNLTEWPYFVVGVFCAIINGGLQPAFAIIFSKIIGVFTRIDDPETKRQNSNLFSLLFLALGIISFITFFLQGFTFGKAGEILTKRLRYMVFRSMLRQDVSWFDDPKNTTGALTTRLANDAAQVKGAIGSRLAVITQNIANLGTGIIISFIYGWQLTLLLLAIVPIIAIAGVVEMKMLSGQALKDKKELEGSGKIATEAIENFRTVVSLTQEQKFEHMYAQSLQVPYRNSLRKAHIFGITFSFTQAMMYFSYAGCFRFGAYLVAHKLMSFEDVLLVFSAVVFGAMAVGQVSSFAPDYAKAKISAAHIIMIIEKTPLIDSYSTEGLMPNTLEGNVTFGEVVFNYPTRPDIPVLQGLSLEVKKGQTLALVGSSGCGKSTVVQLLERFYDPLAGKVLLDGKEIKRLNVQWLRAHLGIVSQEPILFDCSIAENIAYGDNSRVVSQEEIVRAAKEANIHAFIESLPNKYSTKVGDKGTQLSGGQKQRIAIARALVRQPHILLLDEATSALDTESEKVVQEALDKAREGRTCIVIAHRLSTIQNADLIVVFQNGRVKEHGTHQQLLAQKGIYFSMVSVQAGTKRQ

`CCN(CCn1ccc(-c2ccc(F)cn2)n1)C(=O)c1ccccc1-n1nccn1`: the IC50 was 20.6 nM in series [1] and 38.7 nM at Orexin receptor type 2. Also, the minimal effective dose in the series on Rattus norvegicus [2] worked out at 3 mg/kg. This molecule showed a log distribution coefficient (logD) in series [3] of 2.53. Moreover, the half-life in [4] is 0.412 h; in series [5], 1.07 h.
Consider `Cc1cc(C)nc(N2CC3CN(C(=O)c4c(F)cccc4-n4nccn4)CC3C2)n1` (configuration not stated) [SELTOREXANT], for which the half-life in series [6] was 2 h.
Turning to `Cc1ccc(-n2nccn2)c(C(=O)N2CCN(c3nc4cc(Cl)ccc4o3)CC[C@H]2C)c1` [SUVOREXANT], in series [7], the half-life is 12 h.
`COc1ccc(-n2nccn2)c(C(=O)N2CCC[C@@]2(C)c2nc3c(C)c(Cl)ccc3[nH]2)c1` [DARIDOREXANT]: the half-life in series [8] was 6 h.
In the case of `Cc1ccc(-n2nccn2)c(C(=O)N2CCCO[C@H]2Cn2ccc(-c3ccc(F)cn3)n2)c1`, in [9], the concentration at 1 h was determined as 2.23 nM. Further, the Kb in series [10] was 0.8 nM; in series [15], 0.44 nM. The results for the time to peak (Tmax) in series [11] and in series [19] were 0.333 h and 0.583 h, respectively. Also, the fraction unbound at 2 ug/mL was 0.12 in series [12] and 0.036 in series [25]. Further, the concentration for half-maximal inhibition (IC50) in series [1] was determined as 1.05 nM; on Orexin receptor type 2, 1.27 nM. The same molecule returned a logD in [3] of 2.58. Also, the Stability entry in series [13] is “Stable”. The Vd in series [14] was determined as 0.294 L/kg; in series [29], 0.853 L/kg. Further, the clearance in series [16] is 2.65 mL/min/kg; in series [17], 39.5 mL/min/kg. The half-life in [5] is 1.16 h; in series [26] it was 0.238 h. Further, the outcome in the series with Rattus norvegicus [18] was Active. The metabolised at 0.25 h in series [20] was determined as 51%; in series [28] it was 34.4%; in [31] it was 10.5%. For the same molecule, the Ratio is listed as 3.1% in [21] and 13.5% in series [24]. The efflux ratio at P-gp (ABCB1) amounted to 2.43. In the series with Rattus norvegicus [22], the Activity entry was “Dose-dependent effect”. In addition, the bioavailability in series [23] stood at 5.5%; in series [30], 61.6%. Also, the minimal effective dose in the series with Rattus norvegicus [27] worked out at 1 mg/kg.

For the origin of these results see ChEMBL document CHEMBL4622874, “Discovery of ORN0829, a potent dual orexin 1/2 receptor antagonist for the treatment of insomnia” (Bioorg Med Chem, 2020).
